Reference: patent publication US6737383B1, “Herbicidal oxadiazolidines” (priority 1999, dated 2004)

Key:
corn = assay: Test B pre/postemergence corn; assay type: in vivo, Zea mays
Procedure, shortened: (§1)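 Herbicidal effect was estimated by eye on a ten-point control scale after plants spent twelve to sixteen days in a greenhouse following soil or foliar treatment. Foliar sprays targeted plants at one to four leaves; all doses were formulated in a non-phytotoxic solvent with surfactant.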

velvetleaf = assay: Test B pre/postemergence velvetleaf; assay type: in vivo, Abutilon theophrasti
Procedure, shortened: as §1

duck salad = assay: Test B flood test duck salad; assay type: in vivo, Heteranthera limosa
Procedure, shortened: (§2)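 Flood test on plants grown to the 2-leaf stage; treated plants kept in greenhouse twelve to sixteen days, then visually rated against controls on a 0 (no effect) to 10 (complete control) scale.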

wheat = assay: Test B pre/postemergence wheat; assay type: in vivo, Triticum aestivum
Procedure, shortened: as §1

purple nutsedge = assay: Test B pre/postemergence purple nutsedge; assay type: in vivo, Cyperus rotundus
Procedure, shortened: as §1

bedstraw = assay: Test B pre/postemergence bedstraw; assay type: in vivo, Galium aparine
Procedure, shortened: as §1

soybean = assay: Test B pre/postemergence soybean; assay type: in vivo, Glycine max
Procedure, shortened: as §1

pigweed = assay: Test B pre/postemergence pigweed; assay type: in vivo, Amaranthus retroflexus
Procedure, shortened: as §1

rape = assay: Test B pre/postemergence rape; assay type: in vivo, Brassica napus
Procedure, shortened: as §1

crabgrass = assay: Test B pre/postemergence crabgrass; assay type: in vivo, Digitaria sanguinalis
Procedure, shortened: as §1

blackgrass = assay: Test B pre/postemergence blackgrass; assay type: in vivo, Alopecurus myosuroides
Procedure, shortened: as §1

surinam grass = assay: Test B pre/postemergence surinam grass; assay type: in vivo, Brachiaria decumbens
Procedure, shortened: as §1

smallflower flatsedge = assay: Test B flood test smallflower flatsedge; assay type: in vivo, Cyperus difformis
Procedure, shortened: as §2

sugar beet = assay: Test B pre/postemergence sugar beet; assay type: in vivo, Beta vulgaris
Procedure, shortened: as §1

rice = assay: Test B flood test rice; assay type: in vivo, Oryza sativa
Procedure, shortened: as §2

wild oat = assay: Test B pre/postemergence wild oat; assay type: in vivo, Avena fatua
Procedure, shortened: as §1

[1] = Postemergence, Rate 125 g/ha, scale of 0 to 10 where 0 is no effect and 10 is complete control
[2] = Preemergence, Rate 62 g/ha, scale 0 to 10 (0 no effect, 10 complete control)
[3] = Preemergence, Rate 125 g/ha, 0 is no effect, 10 is complete control
[4] = Preemergence, Rate 250 g/ha, scale 0 to 10, 0 is no effect, 10 is complete control
[5] = Preemergence, Rate 500 g/ha, scale 0 to 10 (0 no effect, 10 complete control)
[6] = Rate 62 g/ha, Postemergence, scale of 0 to 10 where 0 is no effect and 10 is complete control
[7] = Rate 250 g/ha, Postemergence, scale 0 to 10, 0 is no effect, 10 is complete control
[8] = Rate 500 g/ha, Postemergence, scale 0 to 10
[9] = Postemergence (flood test species), Rate 125 g/ha, scale of 0 to 10 where 0 is no effect and 10 is complete control
[10] = Rate 62 g/ha, Postemergence section, flood test species, scale of 0 to 10 where 0 is no effect and 10 is complete control
[11] = Rate 250 g/ha, Postemergence (flood test), scale 0 to 10, 0 is no effect, 10 is complete control
[12] = Rate 500 g/ha, listed under Postemergence (flood test species), scale 0 to 10

## CC(C)N(C(=O)n1oc(=O)n(CCCl)c1=O)c1ccc(F)cc1 [Compound 148]
corn; [1]
  Corn plant response rating: 0
corn; [2]
  Corn plant response rating: 0
corn; [3]
  Corn plant response rating (0 to 10 scale): 0
corn; [4]
  Corn plant response rating: 0
corn; [5]
  Corn plant response rating: 0
corn; [6]
  Corn plant response rating: 0
corn; [7]
  Plant response rating, Corn: 0
corn; [8]
  Corn plant response rating: 0
velvetleaf; [1]
  Velvetleaf plant response rating: 0
velvetleaf; [2]
  Velvetleaf plant response rating: 0
velvetleaf; [3]
  Velvetleaf plant response rating (0 to 10 scale): 6
velvetleaf; [4]
  Velvetleaf plant response rating: 8
velvetleaf; [5]
  Velvetleaf plant response rating: 8
velvetleaf; [6]
  Velvetleaf plant response rating: 0
velvetleaf; [7]
  Plant response rating, Velvetleaf: 0
velvetleaf; [8]
  Velvetleaf plant response rating: 1
Duck salad; [9]
  Ducksalad plant response rating: 0
Duck salad; [10]
  Ducksalad plant response rating: 0
Duck salad; [11]
  Plant response rating, Ducksalad: 0
Duck salad; [12]
  Ducksalad plant response rating: 0
wheat; [1]
  Wheat plant response rating: 1
wheat; [2]
  Wheat plant response rating: 0
wheat; [3]
  Wheat plant response rating (0 to 10 scale): 3
wheat; [4]
  Wheat plant response rating: 3
wheat; [5]
  Wheat plant response rating: 6
wheat; [6]
  Wheat plant response rating: 0
wheat; [7]
  Plant response rating, Wheat: 3
wheat; [8]
  Wheat plant response rating: 5
Purple nutsedge; [1]
  Nutsedge plant response rating: 0
Purple nutsedge; [2]
  Nutsedge plant response rating: 0
Purple nutsedge; [3]
  Nutsedge plant response rating (0 to 10 scale): 0
Purple nutsedge; [4]
  Nutsedge plant response rating: 0
Purple nutsedge; [5]
  Nutsedge plant response rating: 0
Purple nutsedge; [6]
  Nutsedge plant response rating: 0
Purple nutsedge; [7]
  Plant response rating, Nutsedge: 0
Purple nutsedge; [8]
  Nutsedge plant response rating: 0
bedstraw; [1]
  Bedstraw plant response rating: 5
bedstraw; [2]
  Bedstraw plant response rating: 0
bedstraw; [3]
  Bedstraw plant response rating (0 to 10 scale): 0
bedstraw; [4]
  Bedstraw plant response rating: 0
bedstraw; [5]
  Bedstraw plant response rating: 2
bedstraw; [6]
  Bedstraw plant response rating: 2
bedstraw; [7]
  Plant response rating, Bedstraw: 6
bedstraw; Rate 500 g/ha, Postemergence, scale 0 to 10, 0 no effect, 10 complete control
  Bedstraw plant response rating: 6
soybean; [1]
  Soybean plant response rating: 4
soybean; [2]
  Soybean plant response rating: 0
soybean; [3]
  Soybean plant response rating (0 to 10 scale): 0
soybean; [4]
  Soybean plant response rating: 0
soybean; [5]
  Soybean plant response rating: 0
soybean; [6]
  Soybean plant response rating: 4
soybean; [7]
  Plant response rating, Soybean: 4
soybean; [8]
  Soybean plant response rating: 5
pigweed; [1]
  Redroot pigweed plant response rating: 2
pigweed; [2]
  Redroot pigweed plant response rating: 7
pigweed; [3]
  Redroot pigweed plant response rating (0 to 10 scale): 9
pigweed; [4]
  Redroot pigweed plant response rating: 9
pigweed; [5]
  Redroot pigweed plant response rating: 10
pigweed; [6]
  Redroot pigweed plant response rating: 2
pigweed; [8]
  Redroot pigweed plant response rating: 5
rape; [1]
  Rape plant response rating: 2
rape; [2]
  Rape plant response rating: 0
rape; [3]
  Rape plant response rating (0 to 10 scale): 0
rape; [4]
  Rape plant response rating: 6
rape; [5]
  Rape plant response rating: 9
rape; [6]
  Rape plant response rating: 1
rape; [7]
  Plant response rating, Rape: 3
rape; [8]
  Rape plant response rating: 4
crabgrass; [1]
  Crabgrass plant response rating: 8
crabgrass; [2]
  Crabgrass plant response rating: 5
crabgrass; [3]
  Crabgrass plant response rating (0 to 10 scale): 8
crabgrass; [4]
  Crabgrass plant response rating: 9
crabgrass; [5]
  Crabgrass plant response rating: 9
crabgrass; [6]
  Crabgrass plant response rating: 8
crabgrass; [7]
  Plant response rating, Crabgrass: 8
crabgrass; [8]
  Crabgrass plant response rating: 9
blackgrass; [1]
  Blackgrass plant response rating: 7
blackgrass; [2]
  Blackgrass plant response rating: 4
blackgrass; [3]
  Blackgrass plant response rating (0 to 10 scale): 4
blackgrass; [4]
  Blackgrass plant response rating: 7
blackgrass; [5]
  Blackgrass plant response rating: 9
blackgrass; [6]
  Blackgrass plant response rating: 5
blackgrass; [7]
  Plant response rating, Blackgrass: 7
blackgrass; [8]
  Blackgrass plant response rating: 7
Surinam grass; [1]
  B. signalgrass plant response rating: 3
Surinam grass; [2]
  B. signalgrass plant response rating: 0
Surinam grass; [3]
  B. signalgrass plant response rating (0 to 10 scale): 5
Surinam grass; [4]
  B. signalgrass plant response rating: 7
Surinam grass; [5]
  B. signalgrass plant response rating: 7
Surinam grass; [6]
  B. signalgrass plant response rating: 0
Surinam grass; [7]
  Plant response rating, B. signalgrass: 5
Surinam grass; Rate 500 g/ha, Postemergence, scale of 0 to 10 where 0 is no effect and 10 is complete control
  B. signalgrass plant response rating: 7
Smallflower flatsedge; [9]
  S. Flatsedge plant response rating: 0
Smallflower flatsedge; [10]
  S. Flatsedge plant response rating: 0
Smallflower flatsedge; [11]
  Plant response rating, S. Flatsedge: 0
Smallflower flatsedge; [12]
  S. Flatsedge plant response rating: 2
Sugar beet; [1]
  Sugarbeets plant response rating: 3
Sugar beet; [2]
  Sugarbeets plant response rating: 4
Sugar beet; [3]
  Sugarbeets plant response rating (0 to 10 scale): 6
Sugar beet; [4]
  Sugarbeets plant response rating: 8
Sugar beet; [5]
  Sugarbeets plant response rating: 10
Sugar beet; [6]
  Sugarbeets plant response rating: 2
Sugar beet; [7]
  Plant response rating, Sugarbeets: 4
Sugar beet; [8]
  Sugarbeets plant response rating: 4
rice; [9]
  Rice plant response rating: 0
rice; [10]
  Rice plant response rating: 0
rice; [11]
  Plant response rating, Rice: 0
rice; [12]
  Rice plant response rating: 0
Wild oat; [1]
  Wild oats plant response rating: 1
Wild oat; [2]
  Wild oats plant response rating: 6
Wild oat; [3]
  Wild oats plant response rating (0 to 10 scale): 6
Wild oat; [4]
  Wild oats plant response rating: 6
Wild oat; [5]
  Wild oats plant response rating: 8
Wild oat; [6]
  Wild oats plant response rating: 0
Wild oat; [7]
  Plant response rating, Wild oats: 5
Wild oat; [8]
  Wild oats plant response rating: 5
